ChEMBL document CHEMBL1201862, “PubChem BioAssay data set” (2004)
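48-hour exposure; five concentrations; linearly interpolated endpoints. GI50: concentration for 50% inhibition of growth.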 Active and inactive are the calls of the source. No stated cut-off is given here; in the data, active = GI50 up to about 1.1 µM and inactive = higher.

Assays:
Test in all cases: NCI anticancer screen, dose series, 48 h
DLD-1 = system: DLD-1
DMS-114 = system: DMS-114
DMS-273 = system: DMS-273
HOP-18 = system: HOP-18
KM-20L2 = system: KM-20L2
LXFL 529 = system: LXFL 529
XF498 = system: XF498
SNB-78 = system: SNB-78
RXF 631 = system: RXF 631

| SMILES | GI50 (DLD-1) | GI50 (DMS-114) | GI50 (DMS-273) | GI50 (HOP-18) | GI50 (KM-20L2) | GI50 (LXFL 529) | GI50 (XF498) | GI50 (SNB-78) | GI50 (RXF 631) |
| --- | --- | --- | --- | --- | --- | --- | --- | --- | --- |
| C=CC(=O)NCNC(=O)C=C | > 100 µM (inactive) | > 100 µM (inactive) | > 100 µM (inactive) | > 100 µM (inactive) | > 100 µM (inactive) | > 100 µM (inactive) | > 100 µM (inactive) |  |  |
| Cc1cc(Cl)ccc1NC(=O)C(=O)Cc1ccc([N+](=O)[O-])c([N+](=O)[O-])c1CC(=O)C(=O)Nc1ccc(Cl)cc1C |  | 60.4 µM (inactive) | > 100 µM (inactive) | > 100 µM (inactive) | > 100 µM (inactive) | > 100 µM (inactive) | > 100 µM (inactive) | > 100 µM (inactive) |  |
| NC(=O)c1csc(C2CCC(CO)O2)n1 (configuration not stated) |  | > 100 µM (inactive) | > 100 µM (inactive) | > 100 µM (inactive) | > 100 µM (inactive) | > 100 µM (inactive) |  | > 100 µM (inactive) |  |
| C=C(C)CCN[Si](c1ccccc1)(c1ccccc1)C(C)(C)C |  | 21.7 µM (inactive) | 18.8 µM (inactive) | 17.2 µM (inactive) | 17.9 µM (inactive) |  | 24.5 µM (inactive) | 25.1 µM (inactive) | 20.2 µM (inactive) |
| CCOC(=O)C(Cc1ccccc1)NC(=O)OC(C)(C)C (configuration not stated) | > 100 µM (inactive) | > 100 µM (inactive) | > 100 µM (inactive) |  |  | > 100 µM (inactive) | > 100 µM (inactive) | > 100 µM (inactive) | > 100 µM (inactive) |
| CC(C)=NNC(=S)NC12CC3CC(CC(C3)C1)C2 |  |  | > 100 µM (inactive) |  | > 100 µM (inactive) | > 100 µM (inactive) | > 100 µM (inactive) | > 100 µM (inactive) | > 100 µM (inactive) |
| Cc1nc(-n2nc(-c3ccccc3)cc2-c2ccccc2)sc1C(/C=C\c1ccc([N+](=O)[O-])cc1)=N/NC(=S)NN | 19.2 µM (inactive) | 37.4 µM (inactive) |  |  | 50.6 µM (inactive) | 47.3 µM (inactive) |  | 70 µM (inactive) |  |
| CSc1cnc2ccccc2c1Sc1cn(C)c2ccccc2c1=O | > 100 µM (inactive) | 14.9 µM (inactive) | 21.6 µM (inactive) | 34 µM (inactive) | 38.9 µM (inactive) |  | 21.9 µM (inactive) |  | 10 µM (inactive) |
| Cn1c2c(c3ccccc31)CCN(CCN1CCN(c3ccccc3)CC1)C2=O | > 100 µM (inactive) | > 100 µM (inactive) | > 100 µM (inactive) | 55 µM (inactive) | > 100 µM (inactive) | > 100 µM (inactive) | 22.2 µM (inactive) |  | > 100 µM (inactive) |
| O=C(/C=C/c1cccc2ccccc12)c1ccccc1Cl | 7.89 µM (inactive) | 12 µM (inactive) | 14.4 µM (inactive) | 17.1 µM (inactive) | 12.7 µM (inactive) | 13.8 µM (inactive) | 7.59 µM (inactive) | 19.6 µM (inactive) | 18.1 µM (inactive) |
| CCCCCCCCCCCCC(=O)OC(c1cnco1)c1nc(C(O)CC(O)C(O)C(C)O)co1 (configuration not stated) | 0.946 µM (active) | 0.18 µM (active) | 0.104 µM (active) | 3.48 µM (inactive) | 1.23 µM (inactive) | 0.238 µM (active) | 0.627 µM (active) |  |  |
| Cc1ccc(NC(=O)CC(=O)n2nc(-c3ccccc3)c(/N=N/c3ccccc3Cl)c2-c2ccccc2)cc1 | > 10 µM (inactive) | > 10 µM (inactive) | 41.8 µM (inactive) | 38.1 µM (inactive) | > 10 µM (inactive) | 71.8 µM (inactive) | 49 µM (inactive) | > 10 µM (inactive) | 96.2 µM (inactive) |
| c1ccc(SC2CCSc3ccccc3C2Sc2ccccc2)cc1 (configuration not stated) | > 100 µM (inactive) | > 10 µM (inactive) | > 100 µM (inactive) |  | > 100 µM (inactive) | > 100 µM (inactive) | > 100 µM (inactive) | > 100 µM (inactive) |  |
| CC(C)(C)C[P+](C)(C)c1ccccc1 | > 100 µM (inactive) | > 100 µM (inactive) | > 100 µM (inactive) | > 100 µM (inactive) | 83 µM (inactive) | > 100 µM (inactive) |  | > 100 µM (inactive) | > 100 µM (inactive) |
| COC1=C(C)C(=O)C2=C(C1=O)C1C3CC4=C(C(=O)C(OC)=C(C)C4=O)C(CNC(=O)C(C)O)N3C(C#N)C(C2)N1C (configuration not stated) | < 0.01 µM (active) | < 0.01 µM (active) | < 0.01 µM (active) | < 0.01 µM (active) | < 0.01 µM (active) |  | < 0.01 µM (active) | < 0.01 µM (active) |  |
| CCN(CC)CC(=O)Nc1ccc2c(c1)C(=O)c1ccc(NC(=O)CN(CC)CC)cc1C2=O | 26.2 µM (inactive) | 20.4 µM (inactive) | 18.7 µM (inactive) |  | 49.8 µM (inactive) | 22.8 µM (inactive) |  | 98.9 µM (inactive) |  |
| CCOC(=O)C1=C(C(=O)OCC)C2(c3ccccc3)N(O1)c1ccccc1C2(C)C (configuration not stated) | 50 µM (inactive) |  |  | 23.3 µM (inactive) | 39.1 µM (inactive) | 36.1 µM (inactive) |  | 54.8 µM (inactive) |  |
| O=C1C2c3[nH]c4ccccc4c3C3CCC(c4ccccc4)CC3C2C(=O)N1c1ccccc1 (configuration not stated) | > 100 µM (inactive) | > 100 µM (inactive) | > 100 µM (inactive) | > 100 µM (inactive) |  | > 100 µM (inactive) | > 100 µM (inactive) | 28.6 µM (inactive) |  |
| COc1cc(CNc2nc3c(N)cc(C(F)(F)F)cc3nc2-c2ccccc2)cc(OC)c1OC | 31.8 µM (inactive) | 12.3 µM (inactive) | 37.8 µM (inactive) | > 10 µM (inactive) | 29.6 µM (inactive) | 25.6 µM (inactive) | 13.7 µM (inactive) | > 10 µM (inactive) | 44.3 µM (inactive) |
| CCN(CC)CCNC(=O)c1ccc(C)c(OCc2ccccc2)c1[N+](=O)[O-] | 34.3 µM (inactive) | 26.5 µM (inactive) | 23.6 µM (inactive) | > 100 µM (inactive) | 27.2 µM (inactive) | 18 µM (inactive) | 20.8 µM (inactive) | 61.9 µM (inactive) |  |
| O=C(CCc1nnc(S)[nH]1)Nc1ccc(Cl)c(Cl)c1 | > 100 µM (inactive) | 23.5 µM (inactive) | 19.8 µM (inactive) | > 100 µM (inactive) | 6.12 µM (inactive) | 13.2 µM (inactive) | > 100 µM (inactive) | > 100 µM (inactive) | 72.3 µM (inactive) |
| O=C1NC(=O)C(C(=O)C(=O)Nc2ccc(Br)cc2)C(=O)N1 | > 100 µM (inactive) | > 100 µM (inactive) | > 100 µM (inactive) | > 100 µM (inactive) | > 100 µM (inactive) | > 100 µM (inactive) | > 100 µM (inactive) | > 100 µM (inactive) | > 100 µM (inactive) |
| CC[n+]1c(/C=C/c2ccc(N(CCCl)CCCl)cc2)ccc2cc(Br)ccc21 | 2.71 µM (inactive) | 0.662 µM (active) | 244 µM (inactive) | 6.14 µM (inactive) | 3.13 µM (inactive) | 0.67 µM (active) | 0.275 µM (active) | 0.76 µM (active) | 630 µM (inactive) |
| O=C(O)Cc1cccc2c1Oc1ccccc1S2 | > 100 µM (inactive) | > 100 µM (inactive) | > 100 µM (inactive) |  | > 100 µM (inactive) | > 100 µM (inactive) |  | > 100 µM (inactive) |  |
| C=CC[P@]1(=O)O[C@H](c2ccccc2)C(C)N1C(C)C (some centres not stated) | > 100 µM (inactive) | > 100 µM (inactive) |  | > 100 µM (inactive) | > 100 µM (inactive) | > 100 µM (inactive) | > 100 µM (inactive) |  | > 100 µM (inactive) |
